Data: patent publication US20250376662A1, “FORWARD PROGRAMMED BLOOD-BRAIN BARRIER MODEL” (priority 2024, published 2025)

Test system: HUVECs
Assay: Gene expression in HUVECs treated with KLF2 lentivirus and CHIR99021
Assay type: cell-based, human
Protocol: RNA was extracted using Direct-zol RNA Miniprep kit (Zymo, R2050). Reverse transcription was performed to obtain cDNA using GoScript Reverse Transcriptase with Oligo (dT) kit (Promega, A2791). Real-time gene expression analysis was conducted using 25-μl reactions containing SYBR Green PCR Master Mix (Life Technologies, 4309155) along with primers specific for gene of interests (Table 2). PCR was run according to manufacturer protocols on Agilent AriaMX Real-Time PCR system.
Recognizing the strong effect of KLF2 or KLF4 overexpression on BBB gene expression, explored whether activated Wnt signaling impacted the ability of KLF overexpression to modulate BBB gene expression. […] This finding indicates a synergistic effect of these two pathways in inducing BBB gene expression. […] Such shifts in Wnt TF expression have been reported to be correlated with β-catenin levels, and represents higher canonical Wnt activities (Guo et al. 2021). Thus, to further assess the canonical Wnt signaling activation, we used an hPSC Wnt reporter line, H9 7TGP. The engineered 7TGP line expresses GFP under the control of a consensus TCF/LEF binding sequence promoter that reports canonical Wnt/β-catenin signaling activation (Lian et al. 2012; Fuerer and Nusse 2010). […] To assess whether these factors induce BBB gene expression in primary EC, we treated.

SMILES: Cc1c[nH]c(-c2cnc(NCCNc3ccc(C#N)cn3)nc2-c2ccc(Cl)cc2Cl)n1 [CHIR99021]
- expression of Wnt signaling TF transcripts LEF1 and TCF7: significantly increased the expression
